In patent publication EP4501112A1, “PLANT DEFENSE ELICITORS” (Globachem NV, priority 2023, dated 2025):
Where two headings read alike, the source gives them in different places.

Legend:
Format in all cases: in vivo
Fusarium culmorum = experiment: whole plant or invertebrate; conditions: for Emax: Fusarium culmorum, in Triticum aestivum, 144 h, read-out: % Efficacy
Spodoptera exigua = experiment: S. exigua survival, larval weight and leaf damage on pea plants after foliar spray; set-up: key to plant damage (1 to 5 scale): 0=no damage or no sucking observed; 1=some damage or some sucking observed; 3=half leaf eaten or half of aphids sucking the leaf; 5=no leaf left or all insects sucking and reproducing; conditions: 0.016 g in 5 mL water with 0.25% tween 20, foliar
Method: DISEASE/PEST: Spodoptera exigua CROP: pea plants (Pisum sativum) APPLICATION: FOLIAR EXPERIMENT/TRIAL PROTOCOL: Peas were grown in pots in the greenhouse (4 plants/pot). […] Plants were sprayed with a small handheld sprayer. 5 ml of spraying volume was applied. First instar (L1) Spodoptera larvae were added to the plants 24h after the treatment. Plant damage, larval survival and larval weight were followed up for 12 days. […] Table 4. Effect on survival and leaf damage of S. exigua on P. sativum.

[1] = test system: Root knot nematode (Meloidogyne graminicola); experiment: Root knot nematode gall development on wheat roots after treatment; conditions: foliar spraying, stock solution 200 x diluted; 400 J2 per plant 24 hours after treatment; 14 days after inoculation
Method: DISEASE/PEST: Root knot nematode (Meloidogyne graminicola) CROP: Triticum aestivum APPLICATION: Foliar application EXPERIMENT/TRIAL PROTOCOL: After seed germination, wheat plants were grown individually for 2 weeks in a PVC tube (18 cm height, 3 cm diameter) filled with a substrate of sand and a water-absorbing polymer (DCM Aquaperla). Plants were grown at 24 °C and supplied with Hoagland solution and water 3 times per week. They were treated after 2 weeks. Twenty-four hours after treatment they were inoculated with 400 nematode juveniles (second stage; J2) per plant. 8 individual plants were analyzed per treatment. Evaluation of nematode infection was done 14 days after inoculation. Development of galls on the roots was microscopically observed and counted. No females were observed yet at this early time point, in any of the treatments. The number of galls was reduced in the […], pelargonic acid ([…] decanoic acid (pm4) treated plants. Azelaic acid (pm3) had no effect on gall numbers in the used concentration. FORMULATION USED: […] PM1 is already formulated.

Leptosphaeria maculans = experiment: Seed treatment lab trial against Leptosphaeria maculans in oilseed rape seedlings; conditions: for Emax: Plenodomus lingam, in Brassica napus, 144 h, 6 days after inoculation, read-out: % Efficacy
From the text: [table] Table 8: Efficacy assessment of fatty acids in seed treatment of Leptosphaeria maculans in oilseed rape (variety Helga)

[2] = test system: Winter wheat (cv. Keitum); experiment: Biostimulant effect of seed coating on winter wheat (greenhouse, root scans)
From the text: [table] Table 13. Biostimulant effect of ammonium pelargonate on winter wheat (cv. Keitum) 14 days after sowing

[3] = seed coating 2 L/mt, 14 days after sowing
[4] = seed coating 2 L/mt, 14 days after sowing, relative to untreated check

CCCCCCCCCC(=O)O [Decanoic acid, decanoic acid]
Emax (Fusarium culmorum; seed treatment 4.56 g/ton): 60% | Emax (Fusarium culmorum; seed treatment 6.08 g/ton): 60% | Emax (Fusarium culmorum; seed treatment 7.60 g/ton): 80% | Larval weight at day 12 (Spodoptera exigua; L1 larvae added 24h after treatment): 196 mg | Number of larvae after 12 days (Spodoptera exigua; L1 larvae added 24h after treatment, 22 larvae at start): 18 | plant damage (1 to 5 scale) (Spodoptera exigua; followed up for 12 days): 1 | number of galls [1]: reduced | Emax (Leptosphaeria maculans; seed treatment 2.28 g/ton): 80%

Ammonium percholate
% efficacy (Fusarium culmorum; in vivo): 60% | % efficacy (Leptosphaeria maculans; in vivo): 70%

CCCCCCCCC(=O)O.N [Ammonium pelargonate]
root length, surface and volume, tips and forks per plant ([2]; coated seeds compared with untreated seedlings): Seeds coated with ammonium pelargonate showed an increase in root length, surface and volume and an increase in tips and forks per plant. (Table 12) | Forks (#/plant) [2, 3]: 330.70 #/plant | Fresh weight (g/plant) [2, 3]: 0.53 g/plant | Plant height (cm) [2, 3]: 22.5 cm | Root diameter (mm) [2, 3]: 0.27 mm | Root length (cm) [2, 3]: 142.1 cm | Root surface (cm^2) [2, 3]: 11.90 cm^2 | Root volume (cm^3) [2, 3]: 0.08 cm^3 | Tillers (#/plant) [2, 3]: 0.40 #/plant | Tips (#/plant) [2, 3]: 1585.20 #/plant | Forks (%UNCK) [2, 4]: 146.65 %UNCK | Fresh weight (%UNCK) [2, 4]: 99.81 %UNCK | Plant height (%UNCK) [2, 4]: 100.9 %UNCK | Root diameter (%UNCK) [2, 4]: 95.08 %UNCK | Root length (%UNCK) [2, 4]: 131.5 %UNCK | Root surface (%UNCK) [2, 4]: 124.21 %UNCK | Root volume (%UNCK) [2, 4]: 117.23 %UNCK | Tips (%UNCK) [2, 4]: 120.36 %UNCK

O=C(O)CCCCCCCC(=O)O [Azaleic acid, Azelaic acid]
number of galls [1]: no effect | Emax (Leptosphaeria maculans; seed treatment 1.52 g/ton): 100% | Emax (Leptosphaeria maculans; seed treatment 2.28 g/ton): 100% | Emax (Leptosphaeria maculans; seed treatment 3.04 g/ton): 100% | Emax (Leptosphaeria maculans; seed treatment 4.56 g/ton): 80% | Emax (Leptosphaeria maculans; seed treatment 6.08 g/ton): 80% | Emax (Leptosphaeria maculans; seed treatment 7.60 g/ton): 80%

CCCCCCCC(=O)O [Caprylic acid, caprylic acid]
Emax (Fusarium culmorum; seed treatment 6.08 g/ton): 80% | Emax (Fusarium culmorum; seed treatment 7.60 g/ton): 80% | number of galls [1]: reduced | Emax (Leptosphaeria maculans; seed treatment 7.60 g/ton): 80%
